From paper PMC7503281, “The Structure of Clostridioides difficile SecA2 ATPase Exposes Regions Responsible for Differential Target Recognition of the SecA1 and SecA2-Dependent Systems” (International Journal of Molecular Sciences, 2020)

Molecular target: T1, CDSecA2 (Clostridioides difficile, UniProt Q183M9)
T1 construct: gene secA2; pMCSG7, E. coli BL21(DE3); His tag cut by TEV, extra N-terminal SNAAA kept; monomer in crystal
Experiment: X-ray crystallography (cocrystallization)
Format: binding
Conditions: 2 mM ATP-γ-S, 4 mM MgCl2, pH 8.3, 20 °C; active site between NBD1 and NBD2, Walker A/B

T1 sequence (Q183M9 whole entry): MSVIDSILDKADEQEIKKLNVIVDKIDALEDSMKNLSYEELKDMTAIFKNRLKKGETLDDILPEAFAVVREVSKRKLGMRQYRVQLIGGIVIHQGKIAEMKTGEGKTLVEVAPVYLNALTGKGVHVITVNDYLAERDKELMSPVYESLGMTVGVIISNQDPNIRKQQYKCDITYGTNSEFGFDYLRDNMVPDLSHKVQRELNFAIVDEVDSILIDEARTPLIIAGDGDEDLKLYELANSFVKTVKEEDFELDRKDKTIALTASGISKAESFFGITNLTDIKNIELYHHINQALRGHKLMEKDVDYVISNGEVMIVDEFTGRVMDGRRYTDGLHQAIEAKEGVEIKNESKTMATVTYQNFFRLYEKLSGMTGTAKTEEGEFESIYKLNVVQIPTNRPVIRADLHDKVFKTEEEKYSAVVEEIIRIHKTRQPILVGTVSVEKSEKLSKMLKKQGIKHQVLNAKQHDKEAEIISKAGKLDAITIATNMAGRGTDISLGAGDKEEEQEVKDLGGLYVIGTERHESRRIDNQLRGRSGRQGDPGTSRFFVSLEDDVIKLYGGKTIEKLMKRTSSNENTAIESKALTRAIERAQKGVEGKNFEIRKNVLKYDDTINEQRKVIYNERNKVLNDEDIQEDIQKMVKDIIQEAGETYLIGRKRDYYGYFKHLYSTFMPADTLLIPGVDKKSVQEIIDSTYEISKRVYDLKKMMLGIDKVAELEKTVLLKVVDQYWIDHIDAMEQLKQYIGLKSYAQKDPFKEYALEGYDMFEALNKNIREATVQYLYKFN

SMILES: Nc1ncnc2c1ncn2[C@@H]1O[C@H](COP(=O)(O)OP(=O)(O)OP(O)(O)=S)[C@@H](O)[C@H]1O [ATP-γ-S, adenosine-5′-(γ-thio)-triphosphate]
- X-ray crystallography (cocrystallization): the electron density map for the ATP-γ-S ligand unambiguously positioned it in the active site
